Reference: patent US12433876B2, “Septin inhibitors for treatment of cancers” (UNIVERSITY OF ROCHESTER, priority 2019, dated 2025)

Target: T1, septin-2 (Homo sapiens, UniProt Q15019)
T1 sequence (Q15019 1-361): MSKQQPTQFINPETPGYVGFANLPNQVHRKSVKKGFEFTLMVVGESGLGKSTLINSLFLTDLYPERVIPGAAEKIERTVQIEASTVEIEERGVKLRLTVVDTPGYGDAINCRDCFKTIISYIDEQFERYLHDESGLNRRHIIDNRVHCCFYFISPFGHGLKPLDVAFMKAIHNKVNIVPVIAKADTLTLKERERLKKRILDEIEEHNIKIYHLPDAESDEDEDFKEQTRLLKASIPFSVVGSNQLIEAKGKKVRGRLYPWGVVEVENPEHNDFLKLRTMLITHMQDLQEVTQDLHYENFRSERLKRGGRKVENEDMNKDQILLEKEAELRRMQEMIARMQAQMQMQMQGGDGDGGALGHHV
Experiment: Confocal analysis of septin-2 filament structure
Format: cell-based
Settings: 48 hours
Description: Cell Cycle Protein Expression. Cell Cycle Antibody Array (FullMoon BioSystems Inc, catalogue number: ACC:058), a high throughput ELISA based antibody array, designed for qualitative/semi-quantitative protein expression profiling was employed to investigate the protein changes after drug treatment. PANC-1 cells were lysed in buffer containing protease and phosphatase inhibitors (Cell Signaling, catalog number: 9803S). Total protein content was quantified by Bradford assay and equal amounts of proteins were analyzed in duplicate with arrays containing 4 to 6 spots for each of 60 probes (ACC058, Cell Cycle Antibody Array; Full Moon Biosystems, Sunnyvale, Calif.), according to manufacturer's instructions. After background correction, mean signal intensities were measured using FullMoon Inc's imaging services. Protein expressions in both the naïve and 328 treatment group was normalized to GAPDH signals. Confocal Analysis of Septin Disarrangement. To determine the impact of UR214-9 treatment on Septin-2 structure in cells, PANC-1 or JIMT-1 cells were seeded on glass slides and allowed to adhere overnight. The media was replaced with complete DMEM media supplemented with DMSO or UR214-9 (1 μM and 70 nM) and cells were incubated for 48 hours. Media was replaced again with new complete medium and fixed with neutral buffered formalin for 15 minutes at […]. Media was removed and cells were washed repeatedly with PBST (5×5 mL). The cells were stained with Septin-2 antibody (Sigma Aldrich, catalog number: HPA018481) in PSB overnight at […]. Media was removed again and cells were washed with 2×5 mL PBST. The cells were stained with fluorescence linked secondary antibody for 1 hr under dark. Slides were washed repeatedly in dark for 7×5 mL PBST, mounting medium containing DAPI (Vector labs) were applied and covered with glass slide. The slides were stored in dark at […] till analysis. Confocal images were obtained and processed essentially as published earlier (see Moore, R. G., Hill, E. K., Horan, T., Yano, N., Kim, K., MacLaughlan, S., Lambert-Messerlian, G., Tseng, Y. D., Padbury, J. F., Miller, M. C., Lange, T. S., Singh, R. K. Sci Rep. 4, 3574, 2014). Pancreatic tumor microarray (US Biomax, cat no: T142a) were deparaffinized, processed and stained with Septin-2 antibody (Sigma Aldrich, cat number: HPA018481) overnight, washed with PBST and incubated with source matched secondary (FITC) for an hour. Slide was washed in PBST (5×10 mL) for five minutes each. DAPI containing mounting media was applied and covered with a glass slide. Confocal images were acquired with Nikon C1si confocal microscope (Nikon Inc. Mellville N.Y.) using diode lasers 402, 488 and 561. […] Five cells were outlined and analyzed per field. […]

SMILES	septin-2 filaments (BXPC-3 cells, 60 μM)	septin-2 needles (JIMT-1, 1 μM)	septin-2 needles (PANC-1, 1 uM)	septin-2 filaments (SKOV-3, 1 μM)
O=C(Nc1ccccc1)Nc1ccnc(Cl)c1 [FCF, N-(2-chloro-4-pyridyl)-N′-phenylurea, reference compound]	strengthen the septin-2 filaments	–	–	–
O=C(Nc1cc(Cl)nc(Cl)c1)Nc1cccc(SC(F)(F)F)c1F [UR214-9]	–	structural disruptions and relocation to nuclear periphery	disarranged and translocated at the cell-surface	complete disruption of septin-2 filaments
